Test results reported in patent US6716866B2, “Aryl-benzimidazole compounds having antiinfective activity” (GeneSoft Pharmaceuticals, Inc., priority 2001, dated 2004).

Legend:
DNA sequence AGTACT = assay: Quantitative DNase I footprint titration, site AGTACT; assay type: binding; conditions: DNase I footprinting, pH 7.0, 22° C.
Experimental: (§1) A number of compounds according to this invention were screened for their ability to bind to three DNA sites, using DNase I footprinting.
(§2) The target sites and their complements are identified in bold underline.
(§3) The resulting duplexes were ligated to the large pUC19 XbaI/Pstl restriction fragment. […] (Sambrook et al., ibid.)
(§4) The polyamides were allowed to equilbrate at 22° C. for 16 h.

DNA sequence ACTACT = assay: Quantitative DNase I footprint titration, site ACTACT; assay type: binding; conditions: DNase I footprinting, pH 7.0, 22° C.
Experimental: as §1, §2, §3, §4

DNA sequence ATTACT = assay: Quantitative DNase I footprint titration, site ATTACT; assay type: binding; conditions: DNase I footprinting, pH 7.0, 22° C.
Experimental: as §1, §2, §3, §4

DNA sequence AATACT = assay: Quantitative DNase I footprint titration, site AATACT; assay type: binding; conditions: DNase I footprinting, pH 7.0, 22° C.
Experimental: as §1, §2, §3, §4

DNA sequence ACTAGT = assay: Quantitative DNase I footprint titration, site ACTAGT; assay type: binding; conditions: DNase I footprinting, pH 7.0, 22° C.
Experimental: as §1, §2, §3, §4

B. cereus ATCC 11778 = assay: NCCLS broth microdilution MIC, B. cereus ATCC 11778; assay type: cell-based; conditions: organism A = B. cereus ATCC 11778
Experimental: (§5) Compounds according to this invention were screened for their in vitro activities against selected species of bacteria and fungi. The minimal inhibition concentration (MIC) of these compounds was determined using the National Committee for Clinical Laboratory Standards (NCCLS) broth microdilution assay in microtiter plates, as set forth in: (1) the guidelines of the National Committee for Clinical Laboratory Standards (NCCLS) Document M7-A4 (NCCLS, 1997); (2) the guidelines of the National Committee for Clinical Laboratory Standards (NCCLS) Document M11-A4 (NCCLS, 1997); and (3) the guidelines and reference method of the National Committee for Clinical Laboratory Standards (NCCLS) Document M27-T (NCCLS, 1995). For antifungal essays, the method recommended in Murray, PR., 1995 Manual of Clinical Microbiology (ASM Press, Washington, D.C.), was employed.

C. albicans ATCC 38247 = assay: NCCLS broth microdilution MIC (antifungal), C. albicans ATCC 38247; assay type: cell-based; conditions: organism B = C. albicans ATCC 38247
Experimental: as §5

E. coli ATCC 25922 = assay: NCCLS broth microdilution MIC, E. coli ATCC 25922; assay type: cell-based; conditions: organism C = E. coli ATCC 25922
Experimental: as §5

E. faecalis ATCC 29212 = assay: NCCLS broth microdilution MIC, E. faecalis ATCC 29212; assay type: cell-based; conditions: organism D = E. faecalis ATCC 29212
Experimental: as §5

S. pneumoniae ATCC 49619 = assay: NCCLS broth microdilution MIC, S. pneumoniae ATCC 49619; assay type: cell-based; conditions: organism F = S. pneumoniae ATCC 49619
Experimental: as §5

S. aureus ATCC 29213 = assay: NCCLS broth microdilution MIC, S. aureus ATCC 29213; assay type: cell-based; conditions: organism G = S. aureus ATCC 29213
Experimental: as §5

S. aureus ATCC 13709 = assay: NCCLS broth microdilution MIC, S. aureus ATCC 13709; assay type: cell-based; conditions: organism E = S. aureus ATCC 13709
Experimental: as §5

E. faecium ATCC 51559 = assay: MIC against drug-resistant bacteria, E. faecium ATCC 51559; assay type: cell-based; conditions: organism A = E. faecium ATCC 51559, vancomycin resistant strain (VRE)
Experimental: as §5
(§6) Further, compounds (I) are effective against drug-resistant bacteria, as evidenced by the data in Table 2 below:
(§7) ATCC 27660 and ATCC 33591 are methycillin resistant strains of S. aureus (MRSA's). ATCC 51559 is a vancomycin resistant strain of E. faecium (VRE). ATCC 12228 is a methycillin resistant strain of S. epidermis (MRSE). ATCC 51422 is a penicillin resistant strain of S. pneumoniae.

S. aureus ATCC 27660 = assay: MIC against drug-resistant bacteria, S. aureus ATCC 27660; assay type: cell-based; conditions: organism B = S. aureus ATCC 27660, methycillin resistant strain (MRSA)
Experimental: as §5, §6, §7

S. aureus ATCC 33591 = assay: MIC against drug-resistant bacteria, S. aureus ATCC 33591; assay type: cell-based; conditions: organism C = S. aureus ATCC 33591, methycillin resistant strain (MRSA)
Experimental: as §5, §6, §7

S. epidermis ATCC 12228 = assay: MIC against drug-resistant bacteria, S. epidermis ATCC 12228; assay type: cell-based; conditions: organism D = S. epidermis ATCC 12228, methycillin resistant strain (MRSE)
Experimental: as §5, §6, §7

S. pneumoniae ATCC 51422 = assay: MIC against drug-resistant bacteria, S. pneumoniae ATCC 51422; assay type: cell-based; conditions: organism E = S. pneumoniae ATCC 51422, penicillin resistant strain
Experimental: as §5, §6, §7

SMILES | Association Constant, Ka (DNA sequence AGTACT) [M⁻¹] | Association Constant, Ka (DNA sequence ACTACT) [M⁻¹] | Association Constant, Ka (DNA sequence ATTACT) [M⁻¹] | Association Constant, Ka (DNA sequence AATACT) [M⁻¹] | Association Constant, Ka (DNA sequence ACTAGT) [M⁻¹] | Minimum Inhibitory Concentration (MIC) (B. cereus ATCC 11778) | Minimum Inhibitory Concentration (MIC) (C. albicans ATCC 38247) [µg/mL] | Minimum Inhibitory Concentration (MIC) (E. coli ATCC 25922) | Minimum Inhibitory Concentration (MIC) (E. faecalis ATCC 29212) | Minimum Inhibitory Concentration (MIC) (S. pneumoniae ATCC 49619) | Minimum Inhibitory Concentration (MIC) (S. aureus ATCC 29213) | Minimum Inhibitory Concentration (MIC) (S. aureus ATCC 13709) | Minimum Inhibitoty Concentration (MIC) (E. faecium ATCC 51559) | Minimum Inhibitoty Concentration (MIC) (S. aureus ATCC 27660) | Minimum Inhibitoty Concentration (MIC) (S. aureus ATCC 33591) | Minimum Inhibitoty Concentration (MIC) (S. epidermis ATCC 12228) | Minimum Inhibitoty Concentration (MIC) (S. pneumoniae ATCC 51422)
CN(C)CCCNC(=O)CCNC(=O)c1cc(NC(=O)c2cc(NC(=O)c3cc(NC(=O)c4nc(NC(=O)CCCNC(=O)c5cc(NC(=O)c6cc(NC(=O)c7cc(NC(=O)c8nccn8C)cn7C)cn6C)cn5C)cn4C)cn3C)cn2C)cn1C [Compound A, reference compound] | 3e+09 | 5e+08 | 5e+08 | 500000 | <1e+08 |  |  |  |  |  |  |  |  |  |  |  | 
Cn1cc(NC(=O)c2cc(NC(=O)c3ccc4nc(-c5sccc5Cl)[nH]c4c3)cn2C)cc1C(=O)NCCN1CCOCC1 [Compound I-4] |  |  |  |  |  | >32 µg/mL | >32 | >32 µg/mL | >32 µg/mL | +++ (MIC ≦4) | + (MIC from 12 to 32, inclusive) |  |  |  |  |  | 
CN(C)CCCNC(=O)CCNC(=O)c1cc(NC(=O)c2cc(NC(=O)c3cc(NC(=O)c4nc(NC(=O)CCCNC(=O)c5cc(NC(=O)c6cc(NC(=O)c7ccc8nc(-c9nccn9C)[nH]c8c7)cn6C)cn5C)cn4C)cn3C)cn2C)cn1C [Compound I-8] | 1e+11 | 5e+09 | 5e+09 | 1e+09 | <1e+08 |  |  |  |  |  |  |  |  |  |  |  | 
CN(C)CCCNC(=O)CCNC(=O)c1cc(NC(=O)c2cc(NC(=O)CCNC(=O)c3cc(NC(=O)c4ccc5nc(-c6cc(Br)c(Br)s6)[nH]c5c4)cn3C)cn2C)cn1C [Compound I-6] |  |  |  |  |  | >32 µg/mL | >32 | >32 µg/mL | >32 µg/mL | >32 µg/mL | >32 µg/mL |  |  |  |  |  | 
Cn1cc(NC(=O)c2ccc3nc(-c4cc(NC(=O)c5cc6ccccc6cn5)cn4C)[nH]c3c2)cc1C(=O)NCCN1CCCCC1 [Compound I-22] |  |  |  |  |  |  |  |  |  |  |  |  | +++ (MIC ≦4) | +++ (MIC ≦4) | +++ (MIC ≦4) | +++ (MIC ≦4) | +++ (MIC ≦4)
CN(C)CCCNC(=O)CCNC(=O)c1cc(NC(=O)c2cc(NC(=O)c3cc(NC(=O)c4nc(NC(=O)CCCNC(=O)c5cc(NC(=O)c6cc(NC(=O)c7ccc8nc(-c9nsc(Cl)c9Cl)[nH]c8c7)cn6C)cn5C)cn4C)cn3C)cn2C)cn1C [Compound I-9] | 1e+11 | 5e+09 | 5e+09 | 1e+09 | <1e+08 |  |  |  |  |  |  |  |  |  |  |  | 
Cn1cc(NC(=O)c2cc(NC(=O)c3ccc4nc(-c5sc6ccccc6c5Cl)[nH]c4c3)cn2C)cc1C(=O)NCCN1CCOCC1 [Compound I-5] |  |  |  |  |  | >32 µg/mL | >32 | >32 µg/mL | >32 µg/mL | >32 µg/mL | >32 µg/mL |  |  |  |  |  | 
CN(C)CCCNC(=O)CCNC(=O)c1cc(NC(=O)c2cc(NC(=O)c3cc(NC(=O)c4nc(NC(=O)CCCNC(=O)c5cc(NC(=O)c6cc(NC(=O)c7cc(NC(=O)c8nsc(NCCCN(C)C)c8Cl)cn7C)cn6C)cn5C)cn4C)cn3C)cn2C)cn1C [B, reference compound] | 1e+11 | 7e+09 | 7e+09 | 7e+09 | <1e+08 |  |  |  |  |  |  |  |  |  |  |  | 
Cn1cc(NC(=O)c2ccc3nc(-c4sccc4Cl)[nH]c3c2)cc1-c1nc2ccc(C(=O)NCCN3CCOCC3)cc2[nH]1 [Compound I-1] |  |  |  |  |  | +++ (MIC ≦4) | >32 | >32 µg/mL | +++ (MIC ≦4) | +++ (MIC ≦4) |  | +++ (MIC ≦4) |  | +++ (MIC ≦4) |  |  | 
C[C@@H]1CN(CCNC(=O)c2ccc3nc(-c4cc(NC(=O)c5cc(NC(=O)c6cc7ccccc7cn6)cn5C)cn4C)[nH]c3c2)C[C@H](C)O1 [Compound I-29] |  |  |  |  |  |  |  |  |  |  |  |  | +++ (MIC ≦4) | +++ (MIC ≦4) | +++ (MIC ≦4) | +++ (MIC ≦4) | +++ (MIC ≦4)
Cn1cc(NC(=O)c2sccc2Cl)cc1C(=O)Nc1cc(-c2nc3ccc(C(=O)NCCN4CCCCC4)cc3[nH]2)n(C)c1 [Compound I-36] |  |  |  |  |  |  |  |  |  |  |  |  | +++ (MIC ≦4) | +++ (MIC ≦4) | +++ (MIC ≦4) | +++ (MIC ≦4) | +++ (MIC ≦4)

Now from value to compound:

Association Constant, Ka (DNA sequence AGTACT) [M⁻¹] | Association Constant, Ka (DNA sequence ACTACT) [M⁻¹] | Association Constant, Ka (DNA sequence ATTACT) [M⁻¹] | Association Constant, Ka (DNA sequence AATACT) [M⁻¹] | Association Constant, Ka (DNA sequence ACTAGT) [M⁻¹] | Minimum Inhibitory Concentration (MIC) (B. cereus ATCC 11778) | Minimum Inhibitory Concentration (MIC) (C. albicans ATCC 38247) [µg/mL] | Minimum Inhibitory Concentration (MIC) (E. coli ATCC 25922) | Minimum Inhibitory Concentration (MIC) (E. faecalis ATCC 29212) | Minimum Inhibitory Concentration (MIC) (S. pneumoniae ATCC 49619) | Minimum Inhibitory Concentration (MIC) (S. aureus ATCC 29213) | Minimum Inhibitory Concentration (MIC) (S. aureus ATCC 13709) | Minimum Inhibitoty Concentration (MIC) (E. faecium ATCC 51559) | Minimum Inhibitoty Concentration (MIC) (S. aureus ATCC 27660) | Minimum Inhibitoty Concentration (MIC) (S. aureus ATCC 33591) | Minimum Inhibitoty Concentration (MIC) (S. epidermis ATCC 12228) | Minimum Inhibitoty Concentration (MIC) (S. pneumoniae ATCC 51422) | SMILES
 |  |  |  |  | +++ (MIC ≦4) | >32 | >32 µg/mL | +++ (MIC ≦4) | +++ (MIC ≦4) |  | +++ (MIC ≦4) | +++ (MIC ≦4) | +++ (MIC ≦4) | +++ (MIC ≦4) | +++ (MIC ≦4) | +++ (MIC ≦4) | Cn1cc(NC(=O)c2ccc3nc(-c4cc(NC(=O)c5sccc5Cl)cn4C)[nH]c3c2)cc1C(=O)NCCN1CCOCC1 [Compound I-2]
 |  |  |  |  | +++ (MIC ≦4) | >32 | +++ (MIC ≦4) | +++ (MIC ≦4) | +++ (MIC ≦4) |  | +++ (MIC ≦4) | +++ (MIC ≦4) | +++ (MIC ≦4) |  | +++ (MIC ≦4) | +++ (MIC ≦4) | Cn1cc(NC(=O)c2sccc2Cl)cc1C(=O)Nc1cc(-c2nc3ccc(C(=O)NCCN4CCOCC4)cc3[nH]2)n(C)c1 [Compound I-3]
 |  |  |  |  |  |  |  |  |  |  |  | +++ (MIC ≦4) | +++ (MIC ≦4) | +++ (MIC ≦4) | +++ (MIC ≦4) | +++ (MIC ≦4) | Cn1cc(NC(=O)c2ccc(F)cc2F)cc1C(=O)Nc1cc(-c2nc3ccc(C(=O)NCCN4CCCCC4)cc3[nH]2)n(C)c1 [Compound I-21]
 |  |  |  |  |  |  |  |  |  |  |  | +++ (MIC ≦4) | +++ (MIC ≦4) | +++ (MIC ≦4) | +++ (MIC ≦4) | +++ (MIC ≦4) | Cn1cc(NC(=O)c2ccc(Cl)cc2F)cc1C(=O)Nc1cc(-c2nc3ccc(C(=O)NCCN4CCOCC4)cc3[nH]2)n(C)c1 [Compound I-13]
 |  |  |  |  |  |  |  |  |  |  |  | +++ (MIC ≦4) | +++ (MIC ≦4) | +++ (MIC ≦4) | +++ (MIC ≦4) | +++ (MIC ≦4) | Cn1cc(NC(=O)c2ccc3nc(-c4cc(NC(=O)c5cc6ccccc6cn5)cn4C)[nH]c3c2)cc1C(=O)NCCN1CCOCC1 [Compound I-31]
